One assay relates to Mmp9. The assay can be described thus: Mmp9 expression by qPCR in mouse peritoneal macrophages cultured on fibronectin. The note with it: wild type and Arhgef1-deficient macrophages on fibronectin; 40 nM S1P, 10 μM LPA, 6 μM PTXA2; 24 h. The assay is classed as cell-based. The protocol:
FIG. 4. TP signaling is required for MMP9 production in vitro and in vivo. A) Macrophage Mmp9 expression after culture on fibronectin for 24 hrs in media/vehicle (−), 40 nM S1P, 10 μM LPA, 10 nM U-46619 (TP agonist) or 6 μM PTXA2 (TP antagonist). Data represent normalized mean±SE. B) Arhgef1−/− mice (n=16) were exposed to aerosolized PBS (n=16), 220 μM PTXA2 (n=6) or 190 μM U-46619 (n=10) for 20 minutes and BAL harvested 1 day later and MMP activity measured.
FIG. 12. Thromboxane receptor signaling is necessary for fibronectin-induced MMP9 production by macrophages and is attenuated by Arhgef1. A, representative gelatin zymograms of conditioned media from macrophages cultured on plastic (ctl) or FN and treated with 1.56 or 6.25 μM of the thromboxane receptor antagonist PTA2. Wild type (+/+) and Arhgef1^−/− (−/−) samples from separate zymograms are shown. B, quantitation of MMP9 activity as determined by densitometric analysis of zymograms in A. The results are representative of two independent experiments. C, representative zymograms from conditioned media from macrophages cultured on plastic or fibronectin and treated with 28 μM of the thromboxane receptor antagonist L-655,240. D, quantitation of MMP9 activity as determined by densitometric analysis of zymograms in C. The results are compiled from two independent experiments with n=4 for both wild type (open bars) and Arhgef1^−/− (black bars) samples. The data represent the means±S.E. *, p<0.05 Student's two-tailed t test compared with conditioned media from cells cultured on plastic. #, p<0.05 Student's two-tailed t test comparing conditioned media from wild type cells to Arhgef1^−/− cells cultured under identical conditions. $, p<0.05 Student's two-tailed t test compared with conditioned media from cells cultured on fibronectin. E, MMP2 activity was quantitated in conditioned media as previously described for MMP9. The results are compiled from four independent experiments with n=10 for wild type (open bars) and Arhgef1^−/− (black bars) samples cultured on either plastic or fibronectin. For cells treated with 20 mM aspirin, n=6 for wild type (open bars) and Arhgef1^−/− (black bars) samples. For cells treated with 28 μM L-655,240, n=4 for wild type (open bars) and Arhgef1^−/− (black bars) samples. The data represent the means±S.E. F, MMP9 activity was quantitated as previously described and normalized to a percentage of fibronectin response for each genotype. The cells were either untreated or treated with 0.5% Me2SO or 28 μM L-655,240. The results are compiled from two independent experiments with n=3 for all conditions and genotypes. The data represent the means±S.E. *, p<0.05 Student's two-tailed t test compared with conditioned media from cells cultured on fibronectin. G, relative Mmp9 expression was measured by qPCR in macrophages cultured on fibronectin in the presence of the thromboxane receptor agonist (U-46619, 10 nM), S1P (40 nM), or LPA (10 μM). […] Wild type (open bars, n=12, 6, 3, and 3 for fibronectin, +U-46619, +S1P, and +LPA, respectively) and Arhgef1^−/− (black bars, n=14, 6, 3, and 2, respectively) from at least two independent experiments. The data represent the means±S.E. *, p<0.05 Student's two-tailed t test compared with conditioned media from cells cultured on fibronectin, #, p<0.05 Student's two-tailed t test comparing conditioned media from wild type cells to Arhgef1^−/− cells cultured under identical conditions. […]

For the next assay, the system named is MMP2. The assay can be described thus: MMP2 activity by gelatin zymography in conditioned media of mouse peritoneal macrophages cultured on fibronectin. The assay is classed as cell-based. The following applies: wild type and Arhgef1−/− macrophages; 20 mM aspirin or 28 μM L-655,240. The procedure: FIG. 12. Thromboxane receptor signaling is necessary for fibronectin-induced MMP9 production by macrophages and is attenuated by Arhgef1. A, representative gelatin zymograms of conditioned media from macrophages cultured on plastic (ctl) or FN and treated with 1.56 or 6.25 μM of the thromboxane receptor antagonist PTA2. Wild type (+/+) and Arhgef1^−/− (−/−) samples from separate zymograms are shown. B, quantitation of MMP9 activity as determined by densitometric analysis of zymograms in A. The results are representative of two independent experiments. C, representative zymograms from conditioned media from macrophages cultured on plastic or fibronectin and treated with 28 μM of the thromboxane receptor antagonist L-655,240. D, quantitation of MMP9 activity as determined by densitometric analysis of zymograms in C. The results are compiled from two independent experiments with n=4 for both wild type (open bars) and Arhgef1^−/− (black bars) samples. […] E, MMP2 activity was quantitated in conditioned media as previously described for MMP9. […] The data represent the means±S.E. F, MMP9 activity was quantitated as previously described and normalized to a percentage of fibronectin response for each genotype. […] G, relative Mmp9 expression was measured by qPCR in macrophages cultured on fibronectin in the presence of the thromboxane receptor agonist (U-46619, 10 nM), S1P (40 nM), or LPA (10 μM). […]

On to `CCCCC[C@@H](O)/C=C/[C@H]1C[C@H]2C[C@@H]([C@@H]1C/C=C\CCCC(=O)O)C2(C)C` (relative stereo) [PTXA2, (18-(1alpha,2beta(Z),3alpha(1E,3S*),5alpha))-7-(3-(3-Hydroxy-1-octenyl)-6,6-dimethylbicyclo(3.1.1)hept-2-yl)-5-heptenoic acid], for which the Mmp9 expression entry with Mmp9 was “ablated Mmp9 expression”. On to `CC(=O)Oc1ccccc1C(=O)O` [aspirin], for which the MMP2 activity result in the assay with MMP2 is “not affected”.

Values taken from patent US9820951B2, “Pulmonary disease treatment and diagnosis based on Arhgef1” (NATIONAL JEWISH HEALTH, A NON-PROFIT ORGANIZATION, priority 2011, dated 2017).
